Data on two molecules can be found in patent US8008510B2, “Metalloprotein inhibitors” (The Regents of the University of California, priority 2004, dated 2011).

Broadly, the IC50 is the concentration that gives 50% inhibition. What is called inhibition is how much of the control response was suppressed.

The experiment addresses MMP-3 (Homo sapiens, UniProt P08254). Nature of the experiment: MMP-3 fluorescence-based inhibition assay.

Sequence of MMP-3 (P08254 100-272 limits assumed): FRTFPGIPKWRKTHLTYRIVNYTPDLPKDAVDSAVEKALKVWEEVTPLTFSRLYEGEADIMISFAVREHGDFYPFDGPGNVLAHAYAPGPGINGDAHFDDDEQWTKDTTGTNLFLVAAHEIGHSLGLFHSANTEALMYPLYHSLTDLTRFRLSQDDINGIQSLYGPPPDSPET

Turning to `Cc1cc(=O)c(O)c(C(=O)Nc2ccc(-c3ccccc3)cc2)o1` [AM3], inhibition was half-maximal at 90 µM (IC50). That is a double-digit micromolar value.

Turning to `O=C(NCc1ccc(-c2ccccc2)cc1)c1cc(=O)c(O)co1` [CA1], the inhibition at 50 µM (read-out: inhibition of MMP-3) is 25%.
